Assay results from publication PMC10128460, “Discovery of the first-in-class potent and isoform-selective human carbonic anhydrase III inhibitors” (Journal of Enzyme Inhibition and Medicinal Chemistry, 2023).
Where “and” joins values, the source holds several entries; their conditions need not be identical. Equal entries are not always repeated.

What was measured:
[1] = target: T1, hCA VA (Homo sapiens, UniProt P35218); assay: Stopped-Flow CO2 hydrase assay, hCA VA; type: biochemical; details: stopped-flow CO2 hydrase, mean from 3 assays, errors ± 5–10%; read-out: KI hCA VA
T1 construct: made in house
Experimental: (§1) An Applied Photophysics stopped-flow instrument has been used for assaying the CA catalysed CO2 hydration activity[47]. […] The CO2 concentrations ranged from 1.7 to 17 mM for the determination of the kinetic parameters and inhibition constants. […] The uncatalysed rates were determined in the same manner and subtracted from the total observed rates. Stock solutions of inhibitor (0.1 mM) were prepared in distilled − deionized water and dilutions up to 0.01 nM were done thereafter with the assay buffer. Inhibitor and enzyme solutions were preincubated together for 15 min at room temperature before assay to allow for the formation of the E − I complex. The inhibition constants were obtained by nonlinear least-squares methods using PRISM 3 and the Cheng − Prusoff equation, as reported earlier[48]^,[49], and represent the mean from at least three different determinations. […] All hCA isoforms were recombinant ones obtained in-house as reported earlier[50].

[2] = target: T2, hCA VII (Homo sapiens, UniProt P43166); assay: Stopped-Flow CO2 hydrase assay, hCA VII; type: biochemical; details: mean from 3 assays, errors ± 5–10%
T2 construct: made in house
Experimental: as §1

[3] = target: T3, hCA I (Homo sapiens, UniProt P00915); assay: Stopped-Flow CO2 hydrase assay, hCA I; type: biochemical; details: mean from 3 assays, errors ± 5–10%
T3 construct: made in house
Experimental: as §1

[4] = target: T4, hCA XII (Homo sapiens, UniProt O43570); assay: Stopped-Flow CO2 hydrase assay, hCA XII; type: biochemical; details: mean from 3 assays, errors ± 5–10%
T4 construct: made in house
Experimental: as §1

[5] = target: T5, hCA VB (Homo sapiens, UniProt Q9Y2D0); assay: Stopped-Flow CO2 hydrase assay, hCA VB; type: biochemical; details: mean from 3 assays, errors ± 5–10%
T5 construct: made in house
Experimental: as §1

[6] = target: T6, hCA II (Homo sapiens, UniProt P00918); assay: Stopped-Flow CO2 hydrase assay, hCA II; type: biochemical; details: mean from 3 assays, errors ± 5–10%
T6 construct: made in house
Experimental: as §1

[7] = target: T7, hCA III (Homo sapiens, UniProt P07451); assay: Stopped-Flow CO2 hydrase assay, hCA III; type: biochemical; details: for Selectivity Index (SI) hCA I/hCA III: ratio of KI hCA I to KI hCA III; for Selectivity Index (SI) hCA II/hCA III: ratio of KI hCA II to KI hCA III; for Ki: stopped-flow CO2 hydrase, mean from 3 assays, errors ± 5–10%
T7 construct: made in house
Experimental: as §1

[8] = target: T8, hCA IV (Homo sapiens, UniProt P22748); assay: Stopped-Flow CO2 hydrase assay, hCA IV; type: biochemical; details: mean from 3 assays, errors ± 5–10%
T8 construct: made in house
T8 sequence (P22748 19-312): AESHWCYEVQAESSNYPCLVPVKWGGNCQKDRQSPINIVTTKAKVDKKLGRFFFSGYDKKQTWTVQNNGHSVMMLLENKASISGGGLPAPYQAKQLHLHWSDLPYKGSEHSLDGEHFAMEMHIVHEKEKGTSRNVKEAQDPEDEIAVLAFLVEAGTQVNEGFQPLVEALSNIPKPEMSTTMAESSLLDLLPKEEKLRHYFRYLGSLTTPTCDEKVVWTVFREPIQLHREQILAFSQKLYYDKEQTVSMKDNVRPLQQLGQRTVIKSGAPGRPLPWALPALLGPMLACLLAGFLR
Experimental: as §1

T4 sequence (O43570 25-354): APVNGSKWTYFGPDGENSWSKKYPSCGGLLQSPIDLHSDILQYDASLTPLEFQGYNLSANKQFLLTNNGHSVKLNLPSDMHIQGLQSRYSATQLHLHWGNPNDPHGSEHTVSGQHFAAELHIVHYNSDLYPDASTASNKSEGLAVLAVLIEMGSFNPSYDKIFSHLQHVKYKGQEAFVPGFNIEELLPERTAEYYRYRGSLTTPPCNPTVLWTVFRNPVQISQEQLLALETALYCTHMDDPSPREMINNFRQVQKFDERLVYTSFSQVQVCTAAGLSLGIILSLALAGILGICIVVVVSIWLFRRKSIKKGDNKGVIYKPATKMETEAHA
T1 sequence (P35218 39-305): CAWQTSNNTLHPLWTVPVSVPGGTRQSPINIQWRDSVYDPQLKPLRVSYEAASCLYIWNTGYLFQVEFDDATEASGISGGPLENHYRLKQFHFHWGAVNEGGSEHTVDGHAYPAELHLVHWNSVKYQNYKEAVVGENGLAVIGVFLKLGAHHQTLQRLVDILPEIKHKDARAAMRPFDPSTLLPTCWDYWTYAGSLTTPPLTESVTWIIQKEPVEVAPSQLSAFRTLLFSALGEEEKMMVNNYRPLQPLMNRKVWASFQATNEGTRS
T2 sequence (P43166 whole entry): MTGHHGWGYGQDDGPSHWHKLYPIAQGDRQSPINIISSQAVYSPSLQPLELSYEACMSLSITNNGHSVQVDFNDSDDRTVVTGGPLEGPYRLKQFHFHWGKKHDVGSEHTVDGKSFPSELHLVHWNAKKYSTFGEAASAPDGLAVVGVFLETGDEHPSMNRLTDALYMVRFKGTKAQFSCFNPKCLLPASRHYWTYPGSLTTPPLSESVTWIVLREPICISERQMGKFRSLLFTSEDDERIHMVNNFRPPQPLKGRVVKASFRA
T7 sequence (P07451 whole entry): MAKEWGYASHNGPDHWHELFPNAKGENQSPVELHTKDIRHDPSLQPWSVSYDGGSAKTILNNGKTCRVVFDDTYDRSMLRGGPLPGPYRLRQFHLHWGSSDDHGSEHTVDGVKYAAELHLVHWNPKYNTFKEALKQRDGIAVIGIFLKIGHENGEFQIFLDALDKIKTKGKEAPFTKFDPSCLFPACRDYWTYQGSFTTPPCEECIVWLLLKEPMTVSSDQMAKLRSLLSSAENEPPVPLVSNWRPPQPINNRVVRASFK
T3 sequence (P00915 whole entry): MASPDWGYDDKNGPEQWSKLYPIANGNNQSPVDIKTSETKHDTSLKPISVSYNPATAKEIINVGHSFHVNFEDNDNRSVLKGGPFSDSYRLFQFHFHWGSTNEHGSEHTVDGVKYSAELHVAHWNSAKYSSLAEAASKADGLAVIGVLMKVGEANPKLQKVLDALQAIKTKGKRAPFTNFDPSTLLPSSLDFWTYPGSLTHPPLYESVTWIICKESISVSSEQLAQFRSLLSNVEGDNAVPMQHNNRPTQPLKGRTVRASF
T5 sequence (Q9Y2D0 34-317): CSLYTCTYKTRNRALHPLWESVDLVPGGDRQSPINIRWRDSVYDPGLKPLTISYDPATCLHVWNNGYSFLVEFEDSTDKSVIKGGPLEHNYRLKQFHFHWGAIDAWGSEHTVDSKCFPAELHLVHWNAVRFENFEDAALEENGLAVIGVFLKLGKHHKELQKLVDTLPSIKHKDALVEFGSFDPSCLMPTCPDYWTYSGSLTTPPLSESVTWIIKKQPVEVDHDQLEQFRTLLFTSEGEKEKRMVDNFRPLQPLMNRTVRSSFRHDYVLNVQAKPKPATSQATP

| Ki [1] [µM] | Ki [2] [µM] | Ki [3] [µM] | Ki [4] [µM] | Ki [5] [µM] | Ki [6] [µM] | Selectivity Index (SI) hCA I/hCA III [7] | Selectivity Index (SI) hCA II/hCA III [7] | Ki [7] [µM] | Ki [8] | melting point [°C] | Compound |
| --- | --- | --- | --- | --- | --- | --- | --- | --- | --- | --- | --- |
| 5.7 | 4.57 | > 10 | 1.5 | 5.87 | 2.9 | – | 3.5 | 0.826 | 5.94 µM and 5.93 µM | 249 to 252 | NS(=O)(=O)CCCn1cc(CNC(=O)Nc2ccc(F)cc2)nn1 [Compound 31, 3–(4-((3–(4-Fluorophenyl)ureido)methyl)-1H-1,2,3-triazol-1-yl)propane-1-sulfonamide] |
| 8.7 | 4.4 | > 10 | 5.03 | 1.61 | 2.97 | – | 3.8 | 0.772 | 6.16 µM | 217 to 218 | Cc1ccc(NC(=O)NCc2cn(CCCS(N)(=O)=O)nn2)cc1 [Compound 32, 3–(4-((3-(p-Tolyl)ureido)methyl)-1H-1,2,3-triazol-1-yl)propane-1-sulfonamide] |
| 7.04 | 5.41 | > 10 | 2.63 | 2.09 | 4.16 | – | 4.2 | 0.989 | 0.875 µM | > 300 | NS(=O)(=O)CCCn1cc(CNC(=O)Nc2ccc(C(F)(F)F)cc2)nn1 [Compound 33, 3–(4-((3–(4-(Trifluoromethyl)phenyl)ureido)methyl)-1H-1,2,3-triazol-1-yl)propane-1-sulfonamide] |
| 2.65 | 2.31 | > 10 | 4.9 | 3.74 | 2.5 | > 18.29 | 4.6 | 0.547 | 4.46 µM | 239 to 241 | CCOC(=O)c1ccc(NC(=O)NCc2cn(CCCS(N)(=O)=O)nn2)cc1 [Compound 34, Ethyl 4–(3-((1–(3-sulfamoylpropyl)-1H-1,2,3-triazol-4-yl)methyl)ureido)benzoate] |
| 2.04 | 4.48 | > 10 | 1.98 | 4 | 0.937 | – | 1.19 and 1.2 | 0.786 | > 10 µM | 214 to 215 | COc1cccc(NC(=O)NCc2cn(CCCS(N)(=O)=O)nn2)c1 [Compound 35, 3–(4-((3–(3-Methoxyphenyl)ureido)methyl)-1H-1,2,3-triazol-1-yl)propane-1-sulfonamide] |
| 8.77 | 5.15 | > 10 | 5.82 | – | – | – | – | – | – | 282 to 285 | COc1ccc(NC(=O)NCc2cn(CCCCS(N)(=O)=O)nn2)c(C)c1 [Compound 49, 4–(4-((3–(4-Methoxy-2-methylphenyl)ureido)methyl)-1H-1,2,3-triazol-1-yl)butane-1-sulfonamide] |

More lines, now with the values behind:

| Compound | Ki [1] [µM] | Ki [2] [µM] | Ki [3] [µM] | Ki [4] [µM] | Ki [5] [µM] | Ki [6] [µM] | Selectivity Index (SI) hCA I/hCA III [7] | Selectivity Index (SI) hCA II/hCA III [7] | Ki [7] [µM] | Ki [8] | melting point [°C] |
| --- | --- | --- | --- | --- | --- | --- | --- | --- | --- | --- | --- |
| 3–(4-(3-Fluorophenyl)-1H-1,2,3-triazol-1-yl)propane-1-sulfonamide [Compound 39] | 1.57 | 6.5 | 0.862 | 1.24 | 1.31 | 3.15 | 5.3 | 19.34 and 19.3 | 0.163 | 2.61 µM | – |
| 3–(4-Phenyl-1H-1,2,3-triazol-1-yl)propane-1-sulfonamide [Compound 38] | 1.65 | 0.86 | 0.607 | 1.06 | 1.04 | 0.713 | 1.21 and 1.2 | 1.4 | 0.502 | 0.959 µM | – |
| 4–(4-(3-Fluorophenyl)-1H-1,2,3-triazol-1-yl)butane-1-sulfonamide [Compound 52] | 1.27 | 3.23 | 0.778 | 7.81 | 2.99 | 8.13 | 2.5 | 26.2 | 0.31 | > 10 µM | – |
| NS(=O)(=O)CCCn1cc(COc2ccccc2)nn1 [Compound 27, 3–(4-(Phenoxymethyl)-1H-1,2,3-triazol-1-yl)propane-1-sulfonamide] | 3.87 | 2.7 | 0.76 | 2.69 | 2.89 | 2.72 | 1.16 and 1.2 | 4.2 | 0.654 | 4.72 µM | 254 to 255 |
| NS(=O)(=O)CCCn1cc(COc2ccc(F)cc2)nn1 [Compound 28, 3–(4-((4-Fluorophenoxy)methyl)-1H-1,2,3-triazol-1-yl)propane-1-sulfonamide] | 1.03 | 4.37 | 4.89 | 2.48 | 2.47 | 2.03 | 6.7 | 2.8 | 0.728 | > 10 µM | 261 to 263 |
| COc1ccc(OCc2cn(CCCS(N)(=O)=O)nn2)cc1 [Compound 29, 3–(4-((4-Methoxyphenoxy)methyl)-1H-1,2,3-triazol-1-yl)propane-1-sulfonamide] | 4.81 | 2.71 | 1.16 | 1.95 | 3.03 | 2.45 | 2.1 | 4.4 | 0.554 | 5.44 µM | 273 to 274 |
| COc1cccc(OCc2cn(CCCS(N)(=O)=O)nn2)c1 [Compound 30, 3–(4-((3-Methoxyphenoxy)methyl)-1H-1,2,3-triazol-1-yl)propane-1-sulfonamide] | 2.88 | 4.68 | 1.91 | 1.1 | 1.44 | 4.1 | 5.5 | 11.89 and 11.9 | 0.345 | > 10 µM | 270 to 272 |
| NS(=O)(=O)CCCCn1cc(COc2ccccc2)nn1 [Compound 40, 4–(4-(Phenoxymethyl)-1H-1,2,3-triazol-1-yl)butane-1-sulfonamide] | 7.78 | 7.61 | 6.54 | 5.18 | 1.53 | 7.77 | 8.0 | 9.5 | 0.818 | 3.61 µM | 221 to 223 |
| NS(=O)(=O)CCCCn1cc(COc2ccc(F)cc2)nn1 [Compound 41, 4–(4-((4-Fluorophenoxy)methyl)-1H-1,2,3-triazol-1-yl)butane-1-sulfonamide] | 4.39 | 5.33 | 6.43 | 2.1 | 1.24 | 8.13 | 10.4 | 13.14 and 13.1 | 0.618 | 5.51 µM | 246 to 248 |
| Ethyl 1–(4-sulfamoylbutyl)-1H-1,2,3-triazole-4-carboxylate [Compound 50] | 0.911 | 0.809 | 0.916 | 1.02 | 0.814 | 0.772 | 1.18 and 1.2 | 1.0 | 0.775 | 3.98 µM | – |
